Measurements as given in patent US20210255193A1, “LYSINE REACTIVE PROBES AND USES THEREOF” (The Scripps Research Institute, priority 2017, published 2021).
One block for each compound: values may come before it.

Legend:
Assay type in all cases: binding
[1] = system: lysines in the human breast cancer cell MDA-MB-231 proteome; assay: competitive isoTOP-ABPP, proteome-wide fragment reactivity; conditions: for proteome-wide reactivity: fragments 50-100 μM; for lysines reacted that showed negligible cross-reactivity with activated esters: human cell proteomes
Protocol: In vitro covalent fragment treatment for isoTOP-ABPP. All compounds were made up as solutions in DMSO (100×) and were used at a final concentration of 50 μM for activated esters and 100 μM for guanidinylating agents. For each profiling sample, 0.5 ml of lysate was treated with 5 μl of the 100× compound stock solution or 5 μl of DMSO. Samples were treated with activated esters for
STP-alkyne labeling and click chemistry. For concentration-dependent reactivity measurements by isoTOP-ABPP, 0.5 ml proteome aliquots were treated at ambient temperature with 1 mM STP-alkyne 1 (5 μl of 100 mM stock in DMSO) and 0.1 mM STP alkyne 1 (5 μl of 10 mM stock in DMSO), respectively. For competitive isoTOP-ABPP, after in vitro fragment treatment (detailed above), the samples were labeled for 1 h at ambient temperature with 0.1 mM STP-alkyne 1 (5 μl of 10 mM stock in DMSO). Samples were conjugated by copper-mediated azide-alkyne cycloaddition (CuAAC) to either the light (1 mM STP-alkyne or fragment treated) or heavy (0.1 mM STP-alkyne or DMSO treated) TEV tags (10 μl of 5 mM stocks in DMSO, final concentration=100 μM) using tris(2-carboxyethyl)phosphine hydrochloride
R value calculation and processing. The ratios of light and heavy MS1 peaks for each unique peptide were quantified with a CIMAGE software using default parameters (3 MS1 acquisitions per peak and signal to noise threshold set to 2.5). For reactivity measurements by isoTOP-ABPP, the R value was calculated from the ratio of MS1 peak areas, comparing the 1 mM STP alkyne sample (light TEV tag) with the 0.1 mM STP alkyne sample (heavy TEV tag). For competitive isoTOP-ABPP, the R value was calculated from the ratio of MS1 peak areas, comparing the DMSO treated sample (heavy TEV tag) with the compound treated sample (light TEV tag). […] Ratios for unique peptide entries are calculated for each experiment; overlapping peptides with the same modified lysine (for example, different charge states, MudPIT chromatographic steps or tryptic termini) are grouped together and the median ratio is reported as the final ratio (R). The peptide ratios reported by CIMAGE were further filtered to ensure the removal or correction of low-quality ratios in each individual data set. The quality filters applied were the following: removal of half tryptic peptides; for ratios with high standard deviations from the median (90% of the median or above) the lowest ratio was taken instead of the median; removal of peptides with R=20 and only a single MS2 event triggered during the elution of the parent ion; manual annotation of all the peptides with ratios of 20, removing any peptides with low quality elution profiles that remained after the previous curation steps (only done for competitive isoTOP-ABPP).
Cross-data processing for fragment screening. For compound treated samples, biological replicates of the same condition were averaged, if the standard deviation was below 60% of the mean; otherwise, for lysines with at least one R value <4 for a particular compound, the lowest value of the ratio set was taken. For lysines, where all R values for a particular compound were ≥4, the average was reported. For peptides containing several possible modified lysines, the lysine with the highest number of quantification events was used for analysis and the remaining, redundant peptides were reported as alternative modification sites. Peptides included in the aggregate dataset (those used for further bioinformatics and statistical analyses) were required to have been quantified in 2 experiments for competitive isoTOP-ABPP. Lysines were categorized as liganded, if they had at least one ratio R≥4 (hit fragments). For liganded lysines with R=20 for all liganding events, lysines were required to have been quantified with R=20 in two separate experiments and were further required to have been quantified with R<20 in one additional experiment. […]

SNX8 Sorting nexin-8 = biological target: T1, SNX8 Sorting nexin-8 (Homo sapiens, UniProt Q9Y5X2); assay: competitive isoTOP-ABPP; conditions: for isoTOP-ABPP reactivity ratio at lysine Q9Y5X2_K316 / isoTOP-ABPP ratio (R) at liganded lysine Q9Y5X2_K316: 50 uM, in vitro; for isoTOP-ABPP reactivity ratio at lysine Q9Y5X2_K316: 231 sol; for isoTOP-ABPP ratio (R) at liganded lysine Q9Y5X2_K316: sol, 231; for isoTOP-ABPP ratio, lysine Q9Y5X2_K316: 50 uM_231_sol_in vitro
T1 construct: endogenous in cells; host or cells: MDA-MB-231 lysate
T1 sequence (Q9Y5X2 1-465): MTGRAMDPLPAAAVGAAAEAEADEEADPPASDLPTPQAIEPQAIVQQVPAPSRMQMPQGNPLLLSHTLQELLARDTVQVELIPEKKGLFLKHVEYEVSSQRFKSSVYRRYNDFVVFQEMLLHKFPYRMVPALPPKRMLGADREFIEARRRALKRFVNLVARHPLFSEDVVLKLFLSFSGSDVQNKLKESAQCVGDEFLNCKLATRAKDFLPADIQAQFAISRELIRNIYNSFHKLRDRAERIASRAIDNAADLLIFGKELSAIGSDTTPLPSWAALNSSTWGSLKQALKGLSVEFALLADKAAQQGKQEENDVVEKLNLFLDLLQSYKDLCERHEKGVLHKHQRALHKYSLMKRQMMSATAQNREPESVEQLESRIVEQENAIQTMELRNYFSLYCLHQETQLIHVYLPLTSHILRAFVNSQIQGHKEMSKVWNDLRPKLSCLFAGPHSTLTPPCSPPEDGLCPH
Outline: (§1)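 Readout: isotopic light/heavy MS1 peak-area ratio (R, DMSO heavy over compound light), median across peptides sharing a modified lysine. Lysate received fragment (activated esters 50 μM, guanidinylating agents 100 μM final) or DMSO, then 0.1 mM STP-alkyne probe for 1 h at ambient temperature.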

[2] = biological target: T2, RPL9P9 60S ribosomal protein L9 (Homo sapiens, UniProt P32969); assay: competitive isoTOP-ABPP; conditions: for isoTOP-ABPP reactivity ratio at lysine P32969_K82 / isoTOP-ABPP ratio (R) at liganded lysine P32969_K82: 50 uM, in vitro; for isoTOP-ABPP reactivity ratio at lysine P32969_K82: 231 sol; for isoTOP-ABPP ratio (R) at liganded lysine P32969_K82: sol, 231; for isoTOP-ABPP ratio, lysine P32969_K82: 50 uM_231_sol_in vitro
T2 construct: isoTOP-ABPP experiments performed in cell lysates (in vitro); endogenous in cells; host or cells: soluble proteome of human cancer cell lines (MDA-MB-231; Ramos and Jurkat also prepared)
Outline: as §1

Compound: O=C(Oc1c(F)c(F)c(F)c(F)c1F)C(c1ccccc1)c1ccccc1 [fragment 20, Pentafluorophenyl 2,2-diphenylacetate]
- proteome-wide reactivity [1]: limited reactivity across the proteome

Compound: O=C(Oc1c(F)c(F)c(F)c(F)c1F)c1cc(C(F)(F)F)cc(C(F)(F)F)c1 [fragment 21, Pentafluorophenyl 3,5-bis(trifluoromethyl)benzoate]
- proteome-wide reactivity [1]: low proteome-wide reactivity

Compound: O=C(CCc1cn(-c2ccccc2)nc1-c1ccccc1)Oc1ccc([N+](=O)[O-])cc1[N+](=O)[O-] [fragment 29, 2,4-Dinitrophenyl 3-(1,3-diphenyl-1H-pyrazol-4-yl)propanoate]
- isoTOP-ABPP reactivity ratio at lysine Q9Y5X2_K316 (SNX8 Sorting nexin-8): 3.4
- proteome-wide reactivity [1]: much greater proteome-wide reactivity

Compound: O=C(Oc1ccc([N+](=O)[O-])cc1[N+](=O)[O-])C(c1ccccc1)c1ccccc1 [fragment 30, 2,4-Dinitrophenyl 2,2-diphenylacetate]
- proteome-wide reactivity [1]: much greater proteome-wide reactivity

Compound: O=C(Oc1ccc([N+](=O)[O-])cc1[N+](=O)[O-])c1cc(C(F)(F)F)cc(C(F)(F)F)c1 [fragment 31, 2,4-Dinitrophenyl 3,5-bis(trifluoromethyl)benzoate]
- isoTOP-ABPP reactivity ratio at lysine P32969_K82 [2]: 0.9

Compound: Cn1cc(CC(=O)Oc2ccc([N+](=O)[O-])cc2[N+](=O)[O-])c2ccccc21 [fragment 32, 2,4-Dinitrophenyl 2-(1-methyl-1H-indol-3-yl)acetate]
- isoTOP-ABPP reactivity ratio at lysine P32969_K82 [2]: 1.0

Compound: COc1cc(CCC(=O)Oc2ccc([N+](=O)[O-])cc2[N+](=O)[O-])cc(OC)c1OC [fragment 33, 2,4-Dinitrophenyl 3-(3,4,5-trimethoxyphenyl)propanoate]
- isoTOP-ABPP reactivity ratio at lysine Q9Y5X2_K316 (SNX8 Sorting nexin-8): 4.1

Compound: O=C(Oc1ccc([N+](=O)[O-])cc1[N+](=O)[O-])c1ccc2ccccc2n1 [fragment 35, 2,4-Dinitrophenyl quinoline-2-carboxylate]
- isoTOP-ABPP ratio (R) at liganded lysine P32969_K82 [2]: 0.8

Compound: O=C(CCc1coc2cc(F)ccc2c1=O)Oc1ccc([N+](=O)[O-])cc1[N+](=O)[O-] [fragment 36, 2,4-Dinitrophenyl 3-(7-fluoro-4-oxo-4H-chromen-3-yl)propanoate]
- isoTOP-ABPP ratio (R) at liganded lysine Q9Y5X2_K316 (SNX8 Sorting nexin-8): 3.6

Compound: O=C(Oc1ccc([N+](=O)[O-])cc1[N+](=O)[O-])c1ccc(Oc2ccccc2)cc1 [fragment 39, 2,4-Dinitrophenyl 4-phenoxybenzoate]
- isoTOP-ABPP ratio (R) at liganded lysine Q9Y5X2_K316 (SNX8 Sorting nexin-8): 1.4
- isoTOP-ABPP ratio (R) at liganded lysine P32969_K82 [2]: 0.7

Compound: O=C(Oc1ccc([N+](=O)[O-])cc1[N+](=O)[O-])c1ccccc1Nc1cccc(C(F)(F)F)c1 [fragment 40, 2,4-Dinitrophenyl 2-((3-(trifluoromethyl)phenyl)amino)benzoate]
- isoTOP-ABPP ratio (R) at liganded lysine Q9Y5X2_K316 (SNX8 Sorting nexin-8): 2.0

Compound: CC(C)(C)OC(=O)NCCCC(=O)Oc1ccc([N+](=O)[O-])cc1[N+](=O)[O-] [fragment 41, 2,4-Dinitrophenyl 4-((tert-butoxycarbonyl)amino)butanoate]
- isoTOP-ABPP ratio (R) at liganded lysine P32969_K82 [2]: 0.9

Compound: CC(=O)Oc1ccc([N+](=O)[O-])cc1[N+](=O)[O-] [fragment 43, 2,4-Dinitrophenyl acetate]
- isoTOP-ABPP ratio (R) at liganded lysine P32969_K82 [2]: 0.9

Compound: N#Cc1ccc(C(=O)Oc2ccc([N+](=O)[O-])cc2[N+](=O)[O-])cc1 [fragment 44, 2,4-Dinitrophenyl 4-cyanobenzoate]
- isoTOP-ABPP ratio, lysine P32969_K82 [2]: 14.5

Compound: O=C(CCc1ccc2c(c1)OCO2)Oc1ccc([N+](=O)[O-])cc1[N+](=O)[O-] [fragment 45, 2,4-Dinitrophenyl 3-(benzo[d][1,3]dioxol-5-yl)propanoate]
- isoTOP-ABPP ratio, lysine P32969_K82 [2]: 1.0

Compound: O=C(ON1C(=O)CCC1=O)c1cc(C(F)(F)F)cc(C(F)(F)F)c1 [fragment 46, 3,5-Bis(trifluoromethyl)benzoic acid NHS ester]
- isoTOP-ABPP ratio, lysine Q9Y5X2_K316 (SNX8 Sorting nexin-8): 2.7
- isoTOP-ABPP ratio, lysine P32969_K82 [2]: 0.5

Compound: COC(=O)NC(=NC(=O)OCC1c2ccccc2-c2ccccc21)n1cccn1 [fragment 49, N-Methoxycarbonyl-N′-9-fluorenylmethoxycarbonyl-pyrazole-1-carboxamidine]
- lysines reacted that showed negligible cross-reactivity with activated esters [1]: 15

Compound: CC(C)(C)OC(=O)N=C(NC(=O)OC(C)(C)C)n1cccn1 [fragment 50, reference compound]
- lysines reacted that showed negligible cross-reactivity with activated esters [1]: 15

- isoTOP-ABPP ratio, lysine Q9Y5X2_K316 (SNX8 Sorting nexin-8): 1.2
Compound: NC(=O)c1cc(C(F)(F)F)cc(C(F)(F)F)c1 [fragment 51, reference compound]
- lysine reactivity ([1]; competition with probe 1 (100 μM)): No lysine reactivity was observed
